Measurements reported in patent publication US11161844B2, “Cyclic substituted imidazo[4,5-c]quinoline derivatives” (Pfizer Inc., priority 2017, dated 2021).

Experiments:
[1] = biological target: LRRK2, WT (GST-tagged truncated LRRK2) (Homo sapiens (Human), UniProt Q5S007); test: LRRK2 kinase assay (Lantha Screen), wild type; type: biochemical; conditions: 100 nM LRRKtide, 1 mM ATP, 2 μg/mL enzyme; geometric mean of 2-4 determinations unless otherwise indicated
Protocol: (§1) LRRK2 kinase activity was measured using Lantha Screen technology from Invitrogen. GST-tagged truncated LRRK2 from Invitrogen (Cat #PV4874) was incubated with a fluorescein-labeled peptide substrate based upon ezrin/radixin/moesin (ERM), also known as LRRKtide (Invitrogen cat #PR8976A), in the presence of a dose response of compound. Upon completion, the assay was stopped and detected with a terbium labeled anti-phospho-ERM antibody (Invitrogen, cat #PR8975A). The assay was carried out under the following protocol: The compound dose response was prepared by diluting compound to a top concentration of 0.3 mM in 100% DMSO and serial diluted by half-log in DMSO to give an 11 point curve, 100× final assay concentration. Using Echo acoustic dispensing, 60 nL of compound was transferred to a low volume Corning 384-well assay plate. 3 μL of a working solution of substrate (200 nM LRRKtide, 2 mM ATP) prepared in assay buffer (50 mM HEPES, pH 7.5, 3 mM MgCl2, with 2 mM DTT and 0.01% Brij35 added fresh) was added to the 60 nL compound assay plate. The kinase reaction was started with 3 μL of a working solution of LRRK2 enzyme at a concentration of 4 μg/mL. The final reaction concentrations were 100 nM LRRKtide, 1 mM ATP, 2 μg/mL LRRK2 enzyme and a compound dose response with a top dose of 3 μM. The reaction was allowed to progress at room temperature for 30 minutes and then stopped with the addition of 6 μL of detection buffer (20 mM Tris pH 7.6, 0.01% NP-40, 6 mM EDTA with 2 nM terbium labeled anti-phospho-ERM). After an incubation of 1 hour at room temperature, the plate was read on an Envision with an excitation wavelength of 340 nm and a reading emission at both 520 nm and 495 nm. The ratio of the 520 nm and 495 nm emission was used to analyze the data. Inhibition of mutant G2019S LRRK2 (Invitrogen cat #PV4881) was measured in the exact same method. All final concentrations of substrate ATP and enzyme were the same.

[2] = biological target: mutant G2019S LRRK2 (Homo sapiens (Human), UniProt Q5S007, G2019S); test: LRRK2 kinase assay (Lantha Screen), mutant G2019S; type: biochemical; conditions: 100 nM LRRKtide, 1 mM ATP, 2 μg/mL enzyme; single determination unless otherwise indicated
Sequence of mutant G2019S LRRK2 (Q5S007 970-2527 G2019S): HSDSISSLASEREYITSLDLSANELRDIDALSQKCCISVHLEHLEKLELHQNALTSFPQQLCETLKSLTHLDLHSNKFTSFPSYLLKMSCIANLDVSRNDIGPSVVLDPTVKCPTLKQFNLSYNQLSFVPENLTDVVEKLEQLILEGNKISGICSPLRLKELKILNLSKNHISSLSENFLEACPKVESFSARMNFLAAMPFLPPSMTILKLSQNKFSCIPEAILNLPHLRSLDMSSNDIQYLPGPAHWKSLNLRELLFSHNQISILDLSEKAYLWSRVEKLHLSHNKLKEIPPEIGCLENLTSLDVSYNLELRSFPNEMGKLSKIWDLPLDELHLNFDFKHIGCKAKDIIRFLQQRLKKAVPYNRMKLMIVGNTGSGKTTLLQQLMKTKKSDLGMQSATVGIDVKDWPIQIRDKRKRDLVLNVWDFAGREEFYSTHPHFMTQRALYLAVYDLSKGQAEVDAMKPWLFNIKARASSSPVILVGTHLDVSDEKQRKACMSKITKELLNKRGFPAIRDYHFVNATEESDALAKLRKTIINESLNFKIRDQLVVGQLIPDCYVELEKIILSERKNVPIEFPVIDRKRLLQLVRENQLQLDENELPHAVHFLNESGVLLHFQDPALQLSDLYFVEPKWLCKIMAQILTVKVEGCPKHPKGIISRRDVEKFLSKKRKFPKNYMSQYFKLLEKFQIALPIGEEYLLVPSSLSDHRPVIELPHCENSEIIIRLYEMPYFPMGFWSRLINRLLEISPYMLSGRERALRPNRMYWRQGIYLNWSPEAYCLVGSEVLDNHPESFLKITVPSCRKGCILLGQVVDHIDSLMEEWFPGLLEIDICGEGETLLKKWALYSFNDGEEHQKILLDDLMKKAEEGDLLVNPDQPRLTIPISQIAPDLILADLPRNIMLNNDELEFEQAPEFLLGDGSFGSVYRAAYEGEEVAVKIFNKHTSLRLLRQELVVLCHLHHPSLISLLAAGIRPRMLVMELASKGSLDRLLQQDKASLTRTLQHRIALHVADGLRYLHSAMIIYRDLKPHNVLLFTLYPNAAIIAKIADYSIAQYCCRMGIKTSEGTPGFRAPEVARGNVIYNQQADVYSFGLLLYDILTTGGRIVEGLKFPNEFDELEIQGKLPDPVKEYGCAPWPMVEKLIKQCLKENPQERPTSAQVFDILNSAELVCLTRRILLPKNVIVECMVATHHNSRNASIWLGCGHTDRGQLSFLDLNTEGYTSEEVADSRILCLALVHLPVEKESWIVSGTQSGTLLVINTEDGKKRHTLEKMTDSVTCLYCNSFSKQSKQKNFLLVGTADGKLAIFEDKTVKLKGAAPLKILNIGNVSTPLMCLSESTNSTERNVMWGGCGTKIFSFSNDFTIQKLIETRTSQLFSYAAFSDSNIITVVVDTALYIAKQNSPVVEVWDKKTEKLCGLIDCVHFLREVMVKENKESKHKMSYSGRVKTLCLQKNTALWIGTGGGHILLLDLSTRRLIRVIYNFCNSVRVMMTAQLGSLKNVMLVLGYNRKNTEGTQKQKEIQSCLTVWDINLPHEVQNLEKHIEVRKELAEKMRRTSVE
Protocol: as §1

Sequence of LRRK2, WT (GST-tagged truncated LRRK2) (Q5S007 970-2527): as the sequence (Q5S007 970-2527 G2019S) above, with S1050G counted along it

Compound | IC50 [1] [nM] | IC50 [2] [nM]
N#CC[C@@H]1C[C@H](n2c3c(cnc4ccc(Cl)cc43)nc2[C@H]2CC[C@@H](F)CC2)CCO1 [Example 28, {(2S,4R)-4-[8-chloro-2-(cis-4-fluorocyclohexyl)-1H-imidazo[4,5-c]quinolin-1-yl]tetrahydro-2H-pyran-2-yl}acetonitrile] | 9.71 | 5.12
CN1CC[C@@H](n2c(C3CCC(F)C3)nc3cnc4ccc(C#N)cc4c32)C1 (stereo partly drawn) [Example 33, 2-[cis-3-fluorocyclopentyl]-1-[(3R)-1-methylpyrrolidin-3-yl]-1H-imidazo[4,5-c]quinoline-8-carbonitrile] | 6.56 | 4.3
CC1CC(c2nc3cnc4ccc(Cl)cc4c3n2[C@@H]2CCO[C@H](C)C2)CO1 (stereo partly drawn) [Example 10, 8-chloro-2-(5-methyltetrahydrofuran-3-yl)-1-[(2R,4R)-2-methyltetrahydro-2H-pyran-4-yl]-1H-imidazo[4,5-c]quinoline] | 23.1 | 23.3
CN1CC(n2c(C3CCC(F)C3)nc3cnc4ccc(C#N)cc4c32)C(F)(F)C1 (stereo not shown) [Example 62, 1-(4,4-difluoro-1-methylpyrrolidin-3-yl)-2-(3-fluorocyclopentyl)-1H-imidazo[4,5-c]quinoline-8-carbonitrile] | > 3000 | –
C[C@@H]1C[C@H](n2c(C3CCC(F)C3)nc3cnc4ccc(F)cc4c32)CCO1 (stereo partly drawn) [Example 38, 8-fluoro-2-[trans-3-fluorocyclopentyl]-1-[(2R,4R)-2-methyltetrahydro-2H-pyran-4-yl]-1H-imidazo[4,5-c]quinoline] | 202 | –
CN1CC[C@@H](n2c([C@H]3CCOC3)nc3cnc4ccc(C#N)cc4c32)C1 [Example 25, 1-[(3R)-1-methylpyrrolidin-3-yl]-2-[(3R)-tetrahydrofuran-3-yl]-1H-imidazo[4,5-c]quinoline-8-carbonitrile] | 32.5 | 80
CN1CC(n2c(C3CCC(F)C3)nc3cnc4ccc(C#N)cc4c32)C(F)(F)C1 (stereo not shown) [Example 57, 1-(4,4-difluoro-1-methylpyrrolidin-3-yl)-2-(3-fluorocyclopentyl)-1H-imidazo[4,5-c]quinoline-8-carbonitrile] | 4.54 | 5.94
C[C@@H]1C[C@H](n2c(C3CC(C)(F)C3)nc3cnc4ccc(Cl)cc4c32)CCO1 (stereo partly drawn) [Example 5, 8-chloro-2-(3-fluoro-3-methylcyclobutyl)-1-[(2R,4R)-2-methyltetrahydro-2H-pyran-4-yl]-1H-imidazo[4,5-c]quinoline] | 16.4 | 17.2
CN1CC[C@@H](n2c3c(cnc4ccc(C#N)cc43)nc2[C@H]2C[C@@](C)(F)C2)C1 [Example 22, 2-(cis-3-fluoro-3-methylcyclobutyl)-1-[(3R)-1-methylpyrrolidin-3-yl]-1H-imidazo[4,5-c]quinoline-8-carbonitrile] | 14.2 | 36.5
C[C@@H]1C[C@H](n2c(C3COC3)nc3cnc4ccc(Cl)cc4c32)CCO1 [Example 12, 8-chloro-1-[(2R,4R)-2-methyltetrahydro-2H-pyran-4-yl]-2-(oxetan-3-yl)-1H-imidazo[4,5-c]quinoline] | 23 | 21.2
CN1CC[C@@H](n2c(C3CCC(F)C3)nc3cnc4ccc(F)cc4c32)C1 (stereo partly drawn) [Example 34, 8-fluoro-2-[cis-3-fluorocyclopentyl]-1-[(3R)-1-methylpyrrolidin-3-yl]-1H-imidazo[4,5-c]quinoline] | 59.6 | 77
C[C@@H]1C[C@H](n2c(C3CCC(F)C3)nc3cnc4ccc(F)cc4c32)CCO1 (stereo partly drawn) [Example 37, 8-fluoro-2-[trans-3-fluorocyclopentyl]-1-[(2R,4R)-2-methyltetrahydro-2H-pyran-4-yl]-1H-imidazo[4,5-c]quinoline] | 200 | –
C[C@@H]1C[C@H](n2c(C3CCC(F)(F)CC3)nc3cnc4ccc(Cl)cc4c32)CCO1 [Example 8, 8-chloro-2-(4,4-difluorocyclohexyl)-1-[(2R,4R)-2-methyltetrahydro-2H-pyran-4-yl]-1H-imidazo[4,5-c]quinoline] | 15.9 | 12.1
C[C@@H]1C[C@H](n2c3c(cnc4ccc(C#N)cc43)nc2[C@H]2C[C@@](C)(F)C2)CCO1 [Example 18, 2-(cis-3-fluoro-3-methylcyclobutyl)-1-[(2R,4R)-2-methyltetrahydro-2H-pyran-4-yl]-1H-imidazo[4,5-c]quinoline-8-carbonitrile] | 10.4 | 8.4
CC1(C)C[C@H](n2c([C@@H]3CC[C@H](F)C3)nc3cnc4ccc(C#N)cc4c32)CCO1 [Example 54, 1-[(4R)-2,2-dimethyltetrahydro-2H-pyran-4-yl]-2-[(1R,3S)-3-fluorocyclopentyl]-1H-imidazo[4,5-c]quinoline-8-carbonitrile] | > 3000 | –
CC1(C)CC(n2c(C3CCC(F)C3)nc3cnc4ccc(C#N)cc4c32)CCO1 (stereo not shown) [Example 39, 1-(2,2-dimethyltetrahydro-2H-pyran-4-yl)-2-(3-fluorocyclopentyl)-1H-imidazo[4,5-c]quinoline-8-carbonitrile] | 4.65 | 4.41
CN1CC(n2c(C3CCC(F)C3)nc3cnc4ccc(C#N)cc4c32)C(F)(F)C1 (stereo not shown) [Example 60, 1-(4,4-difluoro-1-methylpyrrolidin-3-yl)-2-(3-fluorocyclopentyl)-1H-imidazo[4,5-c]quinoline-8-carbonitrile] | 57.1 | 97.4
CC1(C)C[C@H](n2c([C@H]3CC[C@H](F)C3)nc3cnc4ccc(C#N)cc4c32)CCO1 [Example 53, 1-[(4R)-2,2-dimethyltetrahydro-2H-pyran-4-yl]-2-[(1S,3S)-3-fluorocyclopentyl]-1H-imidazo[4,5-c]quinoline-8-carbonitrile] | 413 | –
C[C@@H]1C[C@H](n2c([C@H]3CCOC3)nc3cnc4ccc(C(F)F)cc4c32)CCO1 [Example 21, 8-(difluoromethyl)-1-((2R,4R)-2-methyltetrahydro-2H-pyran-4-yl)-2-((R)-tetrahydrofuran-3-yl)-1H-imidazo[4,5-c]quinoline] | 16.6 | –
CN1CC(n2c(C3CCC(F)C3)nc3cnc4ccc(C#N)cc4c32)C(F)(F)C1 (stereo not shown) [Example 61, 1-(4,4-difluoro-1-methylpyrrolidin-3-yl)-2-(3-fluorocyclopentyl)-1H-imidazo[4,5-c]quinoline-8-carbonitrile] | 464 | –
N#Cc1ccc2ncc3nc([C@H]4C[C@H](F)C4)n(C4CCOCC4(F)F)c3c2c1 (stereo partly drawn) [Example 45, 1-(3,3-difluorotetrahydro-2H-pyran-4-yl)-2-(trans-3-fluorocyclobutyl)-1H-imidazo[4,5-c]quinoline-8-carbonitrile] | 2140 | –
CO[C@H]1C[C@H](c2nc3cnc4ccc(C#N)cc4c3n2C2CCOCC2(F)F)C1 (stereo partly drawn) [Example 50, 1-(3,3-difluorotetrahydro-2H-pyran-4-yl)-2-(trans-3-methoxycyclobutyl)-1H-imidazo[4,5-c]quinoline-8-carbonitrile] | > 3000 | –
CC1(C)C[C@H](n2c([C@@H]3CC[C@@H](F)C3)nc3cnc4ccc(C#N)cc4c32)CCO1 [Example 55, 1-[(4R)-2,2-dimethyltetrahydro-2H-pyran-4-yl]-2-[(1R,3R)-3-fluorocyclopentyl]-1H-imidazo[4,5-c]quinoline-8-carbonitrile] | 2520 | –
CO[C@H]1C[C@H](c2nc3cnc4ccc(C#N)cc4c3n2C2CCOCC2(F)F)C1 (stereo partly drawn) [Example 51, 1-(3,3-difluorotetrahydro-2H-pyran-4-yl)-2-(trans-3-methoxycyclobutyl)-1H-imidazo[4,5-c]quinoline-8-carbonitrile] | 272 | –
CN1CC(n2c(C3CCC(F)C3)nc3cnc4ccc(C#N)cc4c32)C(F)(F)C1 (stereo not shown) [Example 63, 1-(4,4-difluoro-1-methylpyrrolidin-3-yl)-2-(3-fluorocyclopentyl)-1H-imidazo[4,5-c]quinoline-8-carbonitrile] | > 1840 | –
CC1(C)C[C@H](n2c([C@H]3CC[C@@H](F)C3)nc3cnc4ccc(C#N)cc4c32)CCO1 [Example 56, 1-[(4R)-2,2-dimethyltetrahydro-2H-pyran-4-yl]-2-[(1S,3R)-3-fluorocyclopentyl]-1H-imidazo[4,5-c]quinoline-8-carbonitrile] | > 3000 | –
CN1CC(n2c(C3CCC(F)C3)nc3cnc4ccc(C#N)cc4c32)C(F)(F)C1 (stereo not shown) [Example 64, 1-(4,4-difluoro-1-methylpyrrolidin-3-yl)-2-(3-fluorocyclopentyl)-1H-imidazo[4,5-c]quinoline-8-carbonitrile] | 2300 | –
